PubChem BioAssay (NCI)
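1) Cells in 96-well plates. 2) Compound, 48 h, 5 concentrations. 3) Linear interpolation between surrounding doses. 4) Unreached endpoint = highest concentration. Here, GI50 denotes the concentration required for 50% inhibition of growth. At the TGI there is no net growth.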

Columns and labels:
Assay in all cases: NCI anticancer screen, dose series, 48 h; in the data active = GI50 below about 0.43 µM; inactive = the rest
SK-OV-3 ovarian = system: SK-OV-3 ovarian
CAKI-1 renal = system: CAKI-1 renal
M14 melanoma = system: M14 melanoma
HOP-92 NSCLC = system: HOP-92 NSCLC
IGROV1 ovarian = system: IGROV1 ovarian
CCRF-CEM leukemia = system: CCRF-CEM leukemia
SF-539 CNS = system: SF-539 CNS
SR leukemia = system: SR leukemia
NCI-H522 lung = system: NCI-H522 lung
786-0 renal = system: 786-0 renal
HS 578T breast = system: HS 578T breast
MOLT-4 leukemia = system: MOLT-4 leukemia
HCT-15 colon = system: HCT-15 colon
HOP-62 NSCLC = system: HOP-62 NSCLC
NCI/ADR-RES ovarian = system: NCI/ADR-RES ovarian
OVCAR-4 ovarian = system: OVCAR-4 ovarian
LOX IMVI melanoma = system: LOX IMVI melanoma
K-562 leukemia = system: K-562 leukemia
COLO 205 colon = system: COLO 205 colon
HCT-116 colon = system: HCT-116 colon
SN12C renal = system: SN12C renal
T-47D breast = system: T-47D breast
SW-620 colon = system: SW-620 colon
MCF7 breast = system: MCF7 breast
OVCAR-3 ovarian = system: OVCAR-3 ovarian
SK-MEL-5 melanoma = system: SK-MEL-5 melanoma
BT-549 breast = system: BT-549 breast
HT29 colon = system: HT29 colon
HCC-2998 colon = system: HCC-2998 colon
SF-295 CNS = system: SF-295 CNS
DU-145 prostate = system: DU-145 prostate
KM12 colon = system: KM12 colon
A498 renal = system: A498 renal
PC-3 prostate = system: PC-3 prostate
HL-60(TB) leukemia = system: HL-60(TB) leukemia
U251 CNS = system: U251 CNS
UACC-62 melanoma = system: UACC-62 melanoma
TK-10 renal = system: TK-10 renal
A549 NSCLC = system: A549 NSCLC
SK-MEL-2 melanoma = system: SK-MEL-2 melanoma
MDA-MB-435 = system: MDA-MB-435
NCI-H23 lung = system: NCI-H23 lung
SNB-75 CNS = system: SNB-75 CNS
RPMI-8226 leukemia = system: RPMI-8226 leukemia
NCI-H226 lung = system: NCI-H226 lung
OVCAR-5 ovarian = system: OVCAR-5 ovarian
UO-31 renal = system: UO-31 renal
UACC-257 melanoma = system: UACC-257 melanoma
MDA-MB-231 breast = system: MDA-MB-231 breast
SK-MEL-28 melanoma = system: SK-MEL-28 melanoma
MALME-3M melanoma = system: MALME-3M melanoma
ACHN renal = system: ACHN renal
SF-268 CNS = system: SF-268 CNS
OVCAR-8 ovarian = system: OVCAR-8 ovarian
EKVX NSCLC = system: EKVX NSCLC
NCI-H460 lung = system: NCI-H460 lung
SNB-19 CNS = system: SNB-19 CNS
RXF 393 renal = system: RXF 393 renal

O=C(O)c1ccc(CN2CCC(CN[C@@H]3C[C@H]3c3ccccc3)CC2)cc1
> 100 µM: TGI (SK-OV-3 ovarian) | TGI (CAKI-1 renal) | TGI (M14 melanoma) | TGI (HOP-92 NSCLC) | TGI (IGROV1 ovarian) | TGI (CCRF-CEM leukemia) | TGI (SF-539 CNS) | TGI (SR leukemia) | TGI (NCI-H522 lung) | TGI (786-0 renal) | TGI (HS 578T breast) | TGI (MOLT-4 leukemia) | TGI (HCT-15 colon) | TGI (HOP-62 NSCLC) | TGI (NCI/ADR-RES ovarian) | TGI (OVCAR-4 ovarian) | TGI (LOX IMVI melanoma) | TGI (K-562 leukemia) | TGI (COLO 205 colon) | TGI (HCT-116 colon) | TGI (SN12C renal) | TGI (T-47D breast) | TGI (SW-620 colon) | TGI (MCF7 breast) | TGI (OVCAR-3 ovarian) | TGI (SK-MEL-5 melanoma) | TGI (BT-549 breast) | TGI (HT29 colon) | TGI (HCC-2998 colon) | TGI (SF-295 CNS) | TGI (DU-145 prostate) | TGI (KM12 colon) | TGI (A498 renal) | TGI (PC-3 prostate) | TGI (HL-60(TB) leukemia) | TGI (U251 CNS) | TGI (UACC-62 melanoma) | TGI (TK-10 renal) | TGI (A549 NSCLC) | TGI (SK-MEL-2 melanoma) | TGI (MDA-MB-435) | TGI (NCI-H23 lung) | TGI (SNB-75 CNS) | TGI (RPMI-8226 leukemia) | TGI (NCI-H226 lung) | TGI (OVCAR-5 ovarian) | TGI (UO-31 renal) | TGI (UACC-257 melanoma) | TGI (MDA-MB-231 breast) | TGI (SK-MEL-28 melanoma) | TGI (MALME-3M melanoma) | TGI (ACHN renal) | TGI (SF-268 CNS) | TGI (OVCAR-8 ovarian) | TGI (EKVX NSCLC) | TGI (NCI-H460 lung) | TGI (SNB-19 CNS) | TGI (RXF 393 renal)
inactive: GI50 (SK-OV-3 ovarian) > 100 µM | GI50 (CAKI-1 renal) > 100 µM | GI50 (M14 melanoma) > 100 µM | GI50 (HOP-92 NSCLC) > 100 µM | GI50 (IGROV1 ovarian) > 100 µM | GI50 (CCRF-CEM leukemia) > 100 µM | GI50 (SF-539 CNS) > 100 µM | GI50 (SR leukemia) > 100 µM | GI50 (NCI-H522 lung) > 100 µM | GI50 (786-0 renal) > 100 µM | GI50 (HS 578T breast) > 100 µM | GI50 (MOLT-4 leukemia) > 100 µM | GI50 (HCT-15 colon) > 100 µM | GI50 (HOP-62 NSCLC) > 100 µM | GI50 (NCI/ADR-RES ovarian) > 100 µM | GI50 (OVCAR-4 ovarian) > 100 µM | GI50 (LOX IMVI melanoma) > 100 µM | GI50 (K-562 leukemia) > 100 µM | GI50 (COLO 205 colon) > 100 µM | GI50 (HCT-116 colon) > 100 µM | GI50 (SN12C renal) > 100 µM | GI50 (T-47D breast) > 100 µM | GI50 (SW-620 colon) > 100 µM | GI50 (MCF7 breast) > 100 µM | GI50 (OVCAR-3 ovarian) > 100 µM | GI50 (SK-MEL-5 melanoma) > 100 µM | GI50 (BT-549 breast) > 100 µM | GI50 (HT29 colon) > 100 µM | GI50 (HCC-2998 colon) > 100 µM | GI50 (SF-295 CNS) > 100 µM | GI50 (DU-145 prostate) > 100 µM | GI50 (KM12 colon) > 100 µM | GI50 (A498 renal) > 100 µM | GI50 (PC-3 prostate) > 100 µM | GI50 (HL-60(TB) leukemia) > 100 µM | GI50 (U251 CNS) > 100 µM | GI50 (UACC-62 melanoma) > 100 µM | GI50 (TK-10 renal) > 100 µM | GI50 (A549 NSCLC) > 100 µM | GI50 (SK-MEL-2 melanoma) > 100 µM | GI50 (MDA-MB-435) > 100 µM | GI50 (NCI-H23 lung) > 100 µM | GI50 (SNB-75 CNS) > 100 µM | GI50 (RPMI-8226 leukemia) > 100 µM | GI50 (NCI-H226 lung) > 100 µM | GI50 (OVCAR-5 ovarian) > 100 µM | GI50 (UO-31 renal) > 100 µM | GI50 (UACC-257 melanoma) > 100 µM | GI50 (MDA-MB-231 breast) > 100 µM | GI50 (SK-MEL-28 melanoma) > 100 µM | GI50 (MALME-3M melanoma) > 100 µM | GI50 (ACHN renal) > 100 µM | GI50 (SF-268 CNS) > 100 µM | GI50 (OVCAR-8 ovarian) > 100 µM | GI50 (EKVX NSCLC) > 100 µM | GI50 (NCI-H460 lung) > 100 µM | GI50 (SNB-19 CNS) > 100 µM | GI50 (RXF 393 renal) > 100 µM
